{
  "source": "patent US20070129379A1",
  "about": "(priority 2005, published 2007)",
  "data": [
    {"target": "T1, HIV-integrase (Human immunodeficiency virus type 1 group M subtype B, UniProt P12497)", "T1 construct": "Recombinant integrase (0.26 ng) was incubated with the beads", "assay": "HIV-Integrase Inhibition Activity (SPA strand transfer assay)", "assay_type": "biochemical", "settings": "recombinant integrase, biotin labeled substrate DNA on SPA beads, P33 labeled target DNA", "description": "HIV-Integrase Inhibition Activity. To evaluate in-vitro activity against HIV-integrase, 5 pmole of biotin labeled substrate DNA was bound to 100 μg of Streptavidin coated PVT SPA beads (Amersham Pharmacia Biotech). Recombinant integrase (0.26 ng) was incubated with the beads for 90 min at 37° C. Unbound enzyme was removed by washing the complex followed by addition of inhibitors and 0.1 fmol of P33 labeled target DNA. The reaction was stopped by adding EDTA to a final concentration of 10 mM. Samples were counted in TopCountNXT (Packard) and the CPM was used as a measure of integration. The reaction condition was as described in A. Engleman and R. Craige, J. Virol. 69, 5908-5911 (1995). The sequences of substrate and target DNA were described in Nucleic Acid Research 22, 1121-1122 (1994). Activity equal to A refers to a compound having IC50=0.002 to 0.10 μM while B and C denote compounds having IC50=0.1 to 1.0 μM and IC50≧1.0 μM respectively.", "units": {"IC50": "nM"}, "values": [
      {"smiles": "COC(C)(C)c1nc(C(=O)NCc2ccc(F)cc2)c(O)c(=O)n1C", "note": "[Example 1, N-(4-Fluorobenzyl)-5-hydroxy-2-(2-methoxypropan-2-yl)-1-methyl-6-oxo-1,6-dihydropyrimidine-4-carboxamide]", "IC50": "2 to 100"},
      {"smiles": "COC(C)(C)c1nc(C(=O)NCc2ccc(F)c(C)c2)c(O)c(=O)n1C", "note": "[Example 2]", "IC50": "2 to 100"},
      {"smiles": "CC(C)(C)c1nc(O)c(O)c(C(=O)NCc2ccc(F)cc2)n1", "note": "[Example 3, 2-tert-Butyl-5-hydroxy-6-oxo-1,6-dihydro-pyrimidine-4-carboxylic acid 4-fluoro-benzylamide]", "IC50": "2 to 100"},
      {"smiles": "Cn1c(C(C)(C)C)nc(C(=O)NCc2ccc(F)cc2)c(O)c1=O", "note": "[Example 4, 2-tert-Butyl-5-hydroxy-1-methyl-6-oxo-1,6-dihydro-pyrimidine-4-carboxylic acid 4-fluoro-benzylamide]", "IC50": "2 to 100"},
      {"smiles": "CSCCCCC(C)(C)c1nc(C(=O)NCc2ccc(F)cc2)c(O)c(=O)n1C", "note": "[Example 5]", "IC50": "2 to 100"},
      {"smiles": "Cn1c(C2(C)CCCS2)nc(C(=O)NCc2ccc(F)cc2)c(O)c1=O", "note": "(stereo not drawn) [Example 6, N-(4-Fluorobenzyl)-5-hydroxy-1-methyl-2-(2-methyl-tetrahydrothiophen-2-yl)-6-oxo-1,6-dihydropyrimidine-4-carboxamide]", "IC50": "2 to 100"},
      {"smiles": "Cn1c(C2(C)CCCS2)nc(C(=O)NCc2ccc(F)cc2-n2cncn2)c(O)c1=O", "note": "(stereo not drawn) [Example 7, N-(4-Fluoro-2-(1H-1,2,4-triazol-1-yl)benzyl)-5-hydroxy-1-methyl-2-(2-methyl-tetrahydrothiophen-2-yl)-6-oxo-1,6-dihydropyrimidine-4-carboxamide]", "IC50": "2 to 100"},
      {"smiles": "Cn1c(C2(C)CCCS2)nc(C(=O)NCc2ccc(F)cc2S(C)(=O)=O)c(O)c1=O", "note": "(stereo not drawn) [Example 8]", "IC50": "2 to 100"},
      {"smiles": "Cn1c(C2(C)CCCO2)nc(C(=O)NCc2ccc(F)cc2)c(O)c1=O", "note": "(stereo not drawn) [Example 9]", "IC50": "2 to 100"},
      {"smiles": "Cn1c(C2(C)CCCO2)nc(C(=O)NCc2ccc(F)cc2-n2cncn2)c(O)c1=O", "note": "(stereo not drawn) [Example 10]", "IC50": "2 to 100"},
      {"smiles": "Cn1c(C2(C)CCCO2)nc(C(=O)NCc2ccc(F)cc2S(C)(=O)=O)c(O)c1=O", "note": "(stereo not drawn) [Example 11]", "IC50": "2 to 100"},
      {"smiles": "Cn1c(C2(OCCO)CCC2)nc(C(=O)NCc2ccc(F)cc2)c(O)c1=O", "note": "[Example 12, 5-Hydroxy-2-[1-(2-hydroxy-ethoxy)-cyclobutyl]-1-methyl-6-oxo-1,6-dihydro-pyrimidine-4-carboxylic acid 4-fluoro-benzylamide]", "IC50": "2 to 100"},
      {"smiles": "Cn1c(C2(OCCO)CCC2)nc(C(=O)NCc2ccc(F)cc2-n2cncn2)c(O)c1=O", "note": "[Example 13]", "IC50": "2 to 100"},
      {"smiles": "CSCCOC1(c2nc(C(=O)NCc3ccc(F)cc3-n3cncn3)c(O)c(=O)n2C)CCC1", "note": "[Example 14, N-(4-Fluoro-2-(1H-1,2,4-triazol-1-yl)benzyl)-5-hydroxy-1-methyl-2-(1-(2-(methylthio)-ethoxy)cyclobutyl)-6-oxo-1,6-dihydropyrimidine-4-carboxamide]", "IC50": "2 to 100"},
      {"smiles": "COCCOC1(c2nc(C(=O)NCc3ccc(F)cc3)c(O)c(=O)n2C)CCC1", "note": "[Example 15, N-(4-Fluorobenzyl)-5-hydroxy-2-(1-(2-methoxyethoxy)cyclobutyl)-1-methyl-6-oxo-1,6-dihydropyrimidine-4-carboxamide]", "IC50": "2 to 100"},
      {"smiles": "COCCOC1(c2nc(C(=O)NCc3ccc(F)cc3-n3cncn3)c(O)c(=O)n2C)CCC1", "note": "[Example 16, N-(4-Fluoro-2-(1H-1,2,4-triazol-1-yl)benzyl)-5-hydroxy-2-(1-(2-methoxyethoxy)cyclobut-yl)-1-methyl-6-oxo-1,6-dihydropyrimidine-4-carboxamide]", "IC50": "2 to 100"},
      {"smiles": "COCCOC1(c2nc(C(=O)NCc3ccc(F)cc3S(C)(=O)=O)c(O)c(=O)n2C)CCC1", "note": "[Example 17, N-(4-Fluoro-2-(methylsulfonyl)benzyl)-5-hydroxy-2-(1-(2-methoxyethoxy)cyclobutyl)-1-methyl-6-oxo-1,6-dihydropyrimidine-4-carboxamide]", "IC50": "2 to 100"},
      {"smiles": "COCCOC1(c2nc(C(=O)NCc3ccc(F)cc3S(=O)(=O)N(C)C)c(O)c(=O)n2C)CCC1", "note": "[Example 18]", "IC50": "2 to 100"}
    ]}
  ]
}
